Legend:
RSV strain A2 = experiment: standard plaque reduction assay for anti-RSV activity; conditions: for SI (CC50/IC50): calculated selectivity index, HEp-2 cells; for IC50: human respiratory syncytial virus, HEp-2, read-out: IC50 (RSV)
[1] = cell viability assay using tetrazolium salt (MTS); conditions: human
Method: The cell viability assay using tetrazolium salt (MTS) was also performed in HEp-2 cells.

RSV [2] = experiment: plaque titration assay of extracellular and cell-associated virus yield; format: cell-based; conditions: HEp-2 cells, MOI of 3, compound at 0.2 µM
Method: The titer of extracellular (EX) and cell-associated (CA) RSV after incubation in Hep-2 cells at a multiplicity of infection (MOI) of 3 was determined by a plaque titration assay. Infected cells were harvested by scraping into fresh supernatant medium and then subjected to a rapid freeze-thaw cycle at -80 °C ethanol and a 37 °C water bath, respectively, to release infectious virus.

RSV [3] = experiment: time-of-addition study of antiviral effect; format: cell-based; conditions: HEp-2 cells, compound at 0.2 µM added from -1h to 6h relative to infection
Method: A time-of-addition study was performed using the compounds of Examples 25 and 61.

Row | SMILES | SI (CC50/IC50) (RSV strain A2) | IC50 (RSV strain A2) [µM] | CC50 [1] [µM] | inhibition of cell-associated (CA) RSV yield (RSV [2]) | inhibition of extracellular (EX) RSV yield (RSV [2]) | time dependency of inhibition of RSV yield (RSV [3]) | CC50 ([1]; HEp-2 cells) [µM]
1 | COc1ccc(-c2c(C)nc3c(NCc4ccncc4)cc(C)nn23)cc1OC [Example 1, 3-(3,4-dimethoxyphenyl)-2,6-dimethyl-N-(pyridin-4-ylmethyl)imidazo[1,2-b]pyridazin-8-amine] | 2000 | 0.03 | 60 |  |  |  | 
2 | Cc1cc(CNc2cc(C)nc3c(-c4ccc5c(c4)c(C)nn5C)c(C)nn23)ccn1 [Example 5, 3-(1,3-dimethyl-1H-indazol-5-yl)-2,5-dimethyl-N-[(2-methylpyridin-4-yl)methyl]pyrazolo[1,5-a]pyrimidin-7-amine] | 450 | 0.04 | 18 |  |  |  | 
3 | CCc1cc(CNc2cc(C)nc3c(-c4ccc5c(c4)c(C)nn5C)c(C)nn23)ccn1 [Example 6, 3-(1,3-dimethyl-1H-indazol-5-yl)-2,5-dimethyl-N-[(2-ethylpyridin-4-yl)methyl]pyrazolo[1,5-a]pyrimidin-7-amine] | 3200 | 0.05 | 160 |  |  |  | 
4 | COc1ccc(-c2c(C)nn3c(NCc4cccc(S(C)(=O)=O)c4)cc(C)nc23)cc1OC [Example 25, 3-(3,4-dimethoxyphenyl)-2,5-dimethyl-N-[(3-methylsulfonylphenyl)methyl]pyrazolo[1,5-a]pyrimidin-7-amine] | >25000 | 0.02 | > 500 | approximately 1 log10 | approximately 1 log10 | time-independent inhibition of RSV yield | 
5 | COc1ccc(-c2c(C)nn3c(NCc4ccc(C)nc4)cc(C)nc23)cc1OC [Example 29, 3-(3,4-dimethoxyphenyl)-2,5-dimethyl-N-[(6-methyl-3-pyridyl)methyl]pyrazolo[1,5-a]pyrimidin-7-amine] | 150 | 0.04 |  |  |  |  | 60
6 | COc1ccc(-c2c(C)nn3c(NCc4ccncc4)nc(C)nc23)cc1OC [Example 38, 8-(3,4-dimethoxyphenyl)-2,7-dimethyl-N-(4-pyridylmethyl)pyrazolo[1,5-a][1,3,5]triazin-4-amine] | 667 | 0.09 | 60 |  |  |  | 
7 | COc1ccc(-c2c(C)nn3c(NCc4ccc(S(N)(=O)=O)cc4)nc(C)nc23)cc1OC [Example 45, 4-[[[8-(3,4-dimethoxyphenyl)-2,7-dimethylpyrazolo[1,5-a][1,3,5]triazin-4-yl]amino]methyl]benzenesulfonamide] | >7143 | 0.07 | > 500 |  |  |  | 
8 | Cc1cc(NCc2ccncc2)c2nc(C)c(-c3ccc4c(c3)c(C)nn4C)n2n1 [Example 61, 3-(1,3-dimethyl-1H-indazol-5-yl)-2,6-dimethyl-N-(pyridin-4-ylmethyl)imidazo[1,2-b]pyridazin-8-amine] | 514 | 0.034 | 18 | approximately 1 log10 | approximately 1 log10 | time-independent inhibition of RSV yield | 
9 | Cc1cc(NCc2ccncc2)n2nc(C)c(-c3ccc4c(c3)c(C)nn4C)c2n1 [Example 68, 3-(1,3-dimethyl-1H-indazol-5-yl)-2,5-dimethyl-N-(pyridin-4-ylmethyl)pyrazolo[1,5-a]pyrimidin-7-amine] | 1000 | 0.04 | 40 |  |  |  | 
10 | CC(=O)Nc1nc(C)c(-c2ccc(Cl)c(S(=O)(=O)NCCO)c2)s1 [PIK-93, reference compound] |  | 0.4 |  |  |  |  | 
11 | Cc1cc(CCCOc2c(C)cc(-c3noc(C(F)(F)F)n3)cc2C)on1 [Pleconaril, reference compound] | 38 | 8 | 300 |  |  |  | 
